This assay concerns the target T1, human PKCθ full length enzyme (Homo sapiens, UniProt Q04759).
T1 construct: human PKCθ full length enzyme (Panvera Cat# P2996); purchased Panvera P2996
Put plainly: PKCθ IMAP assay (fluorescence polarization). As to conditions: human PKCθ full length enzyme, IMAP; average value; read-out: IC50 PKCθ IMAP. It is filed as biochemical.

Molecules are shown by their SMILES.

In general, IC50 refers to the concentration needed to halve the response being measured.

T1 sequence (Q04759 whole entry): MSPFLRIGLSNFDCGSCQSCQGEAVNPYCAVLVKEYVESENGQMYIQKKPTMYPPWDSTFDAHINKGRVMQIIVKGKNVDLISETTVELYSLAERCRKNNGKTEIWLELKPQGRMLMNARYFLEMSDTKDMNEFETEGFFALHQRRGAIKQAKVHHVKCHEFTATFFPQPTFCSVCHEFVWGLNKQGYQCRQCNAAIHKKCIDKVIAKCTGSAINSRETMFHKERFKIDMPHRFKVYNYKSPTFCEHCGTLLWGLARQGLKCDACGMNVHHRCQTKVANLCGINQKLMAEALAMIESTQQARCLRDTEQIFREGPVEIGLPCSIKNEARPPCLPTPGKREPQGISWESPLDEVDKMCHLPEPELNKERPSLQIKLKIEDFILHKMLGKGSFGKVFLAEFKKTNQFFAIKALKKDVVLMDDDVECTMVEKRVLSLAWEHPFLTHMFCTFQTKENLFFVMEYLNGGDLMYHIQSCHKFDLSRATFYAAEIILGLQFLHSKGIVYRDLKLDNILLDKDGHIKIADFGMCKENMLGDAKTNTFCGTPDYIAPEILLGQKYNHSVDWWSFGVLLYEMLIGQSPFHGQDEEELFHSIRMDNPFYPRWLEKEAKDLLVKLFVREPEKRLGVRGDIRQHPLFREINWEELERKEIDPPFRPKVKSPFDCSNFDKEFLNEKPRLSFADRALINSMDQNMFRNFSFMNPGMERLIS

Consider `COc1ccc(-c2cncc(C#N)c2Nc2ccc3c(ccn3C)c2C)cc1OC` [Compound 555, 5-(3,4-dimethoxyphenyl)-4-[(1,4-dimethyl-1H-indol-5-yl)amino]nicotinonitrile], for which the IC50 amounted to 226 nM.

As for `Cc1c(Nc2c(C#N)cncc2-c2cccc(C(=O)O)c2)ccc2[nH]ccc12` [Compound 556, 3-{5-cyano-4-[(4-methyl-1H-indol-5-yl)amino]pyridin-3-yl}benzoic acid], the IC50 is 110 nM.

Regarding `COc1ccccc1-c1cncc(C#N)c1Nc1ccc2[nH]ccc2c1C` [Compound 557, 5-(2-methoxyphenyl)-4-[(4-methyl-1H-indol-5-yl)amino]nicotinonitrile], the IC50 is 82 nM.

In the case of `COc1cccc(-c2cncc(C#N)c2Nc2ccc3[nH]ccc3c2C)c1` [Compound 558, 5-(3-methoxyphenyl)-4-[(4-methyl-1H-indol-5-yl)amino]nicotinonitrile], the IC50 came to 36 nM.

Take `COc1ccc(-c2cncc(C#N)c2Nc2ccc3[nH]ccc3c2C)cc1` [Compound 559, 5-(4-methoxyphenyl)-4-[(4-methyl-1H-indol-5-yl)amino]nicotinonitrile]: the IC50 is 6 nM.

Turning to `Cc1c(Nc2c(C#N)cncc2-c2ccccc2)ccc2[nH]ccc12` [Compound 560, 4-[(4-methyl-1H-indol-5-yl)amino]-5-phenylnicotinonitrile], the IC50 was found to be 27 nM.

For `Cc1c(Nc2c(C#N)cncc2-c2cccs2)ccc2[nH]ccc12` [Compound 561, 4-[(4-methyl-1H-indol-5-yl)amino]-5-(2-thienyl)nicotinonitrile], the IC50 was 21 nM.

As for `Cc1c(Nc2c(C#N)cncc2-c2ccsc2)ccc2[nH]ccc12` [Compound 562, 4-[(4-methyl-1H-indol-5-yl)amino]-5-(3-thienyl)nicotinonitrile], the IC50 came to 12 nM.

On to `Cc1c(Nc2c(C#N)cncc2-c2ccoc2)ccc2[nH]ccc12` [Compound 563, 5-(3-furyl)-4-[(4-methyl-1H-indol-5-yl)amino]nicotinonitrile], for which the IC50 worked out at 22 nM.

In the case of `Cc1c(Nc2c(C#N)cncc2-c2cncn2C)ccc2[nH]ccc12` [Compound 564, 5-(1-methyl-1H-imidazol-5-yl)-4-[(4-methyl-1H-indol-5-yl)amino]nicotinonitrile], the IC50 is 98 nM.

`Cc1c(Nc2c(C#N)cncc2-c2ccccn2)ccc2[nH]ccc12` [Compound 565, 4′-[(4-methyl-1H-indol-5-yl)amino]-2,3′-bipyridine-5′-carbonitrile]: the IC50 was 22 nM.

On to `Cc1c(Nc2c(C#N)cncc2-c2ccc(NC(=O)NC3CC3)cc2)ccc2[nH]ccc12` [Compound 566, 1-(4-{5-cyano-4-[(4-methyl-1H-indol-5-yl)amino]pyridin-3-yl}phenyl)-3-cyclopropylurea], for which the IC50 was determined as 23 nM.

Take `CNC(=O)Nc1ccc(-c2cncc(C#N)c2Nc2ccc3[nH]ccc3c2C)cc1` [Compound 567, 1-(4-{5-cyano-4-[(4-methyl-1H-indol-5-yl)amino]pyridin-3-yl}phenyl)-3-methylurea]: the IC50 was 21 nM.

For the molecule `Cc1c(Nc2c(C#N)cncc2-c2ccc(NC(=O)N(C)C)cc2)ccc2[nH]ccc12` [Compound 568, 3-(4-{5-cyano-4-[(4-methyl-1H-indol-5-yl)amino]pyridin-3-yl}phenyl)-1,1-dimethylurea], the IC50 came out at 56 nM.

Take `Cc1c(Nc2c(C#N)cncc2-c2ccc(NC(=O)N3CCOCC3)cc2)ccc2[nH]ccc12` [Compound 569, N-(4-{5-cyano-4-[(4-methyl-1H-indol-5-yl)amino]pyridin-3-yl}phenyl)morpholine-4-carboxamide]: the IC50 was 59 nM.

`Cc1c(Nc2c(C#N)cncc2-c2ccc([N+](=O)[O-])cc2)ccc2[nH]ccc12` [Compound 570, 4-[(4-methyl-1H-indol-5-yl)amino]-5-(4-nitrophenyl)nicotinonitrile]: the IC50 came out at 16 nM.

As to `Cc1c(Nc2c(C#N)cncc2-c2ccc(N)cc2)ccc2[nH]ccc12` [Compound 571, 5-(4-aminophenyl)-4-[(4-methyl-1H-indol-5-yl)amino]nicotinonitrile], the IC50 turned out to be 16 nM.

On to `Cc1c(Nc2c(C#N)cncc2-c2cccc(N)c2)ccc2[nH]ccc12` [Compound 572, 5-(3-aminophenyl)-4-[(4-methyl-1H-indol-5-yl)amino]nicotinonitrile], for which the half-maximal inhibitory concentration (IC50) was 50 nM.

On to `Cc1c(Nc2c(C#N)cncc2-c2ccccc2N)ccc2[nH]ccc12` [Compound 573, 5-(2-aminophenyl)-4-[(4-methyl-1H-indol-5-yl)amino]nicotinonitrile], for which the IC50 is 57 nM.

Consider `Cc1c(Nc2c(C#N)cncc2-c2ccc(N(C)C)cc2)ccc2[nH]ccc12` [Compound 574, 5-[4-(dimethylamino)phenyl]-4-[(4-methyl-1H-indol-5-yl)amino]nicotinonitrile], for which the IC50 amounted to 15 nM.

On to `Cc1c(Nc2c(C#N)cncc2-c2cccc(N(C)C)c2)ccc2[nH]ccc12` [Compound 575, 5-[3-(dimethylamino)phenyl]-4-[(4-methyl-1H-indol-5-yl)amino]nicotinonitrile], for which the IC50 came to 36 nM.

Regarding `CC(=O)Nc1ccc(-c2cncc(C#N)c2Nc2ccc3[nH]ccc3c2C)cc1` [Compound 576, N-(4-{5-cyano-4-[(4-methyl-1H-indol-5-yl)amino]pyridin-3-yl}phenyl)acetamide], the IC50 worked out at 73 nM.

With `CC(=O)Nc1ccccc1-c1cncc(C#N)c1Nc1ccc2[nH]ccc2c1C` [Compound 577, N-(2-{5-cyano-4-[(4-methyl-1H-indol-5-yl)amino]pyridin-3-yl}phenyl)acetamide], the IC50 worked out at 36 nM.

Regarding `CC(=O)Nc1cccc(-c2cncc(C#N)c2Nc2ccc3[nH]ccc3c2C)c1` [Compound 578, N-(3-{5-cyano-4-[(4-methyl-1H-indol-5-yl)amino]pyridin-3-yl}phenyl)acetamide], the IC50 was 97 nM.

Turning to `Cc1c(Nc2c(C#N)cncc2-c2ccc(NC(=O)C(C)C)cc2)ccc2[nH]ccc12` [Compound 579, N-(4-{5-cyano-4-[(4-methyl-1H-indol-5-yl)amino]pyridin-3-yl}phenyl)-2-methylpropanamide], the IC50 was determined as 4730 nM.

For `CNC(=O)c1ccc(-c2cncc(C#N)c2Nc2ccc3[nH]ccc3c2C)cc1` [Compound 580, 4-{5-cyano-4-[(4-methyl-1H-indol-5-yl)amino]pyridin-3-yl}-N-methylbenzamide], the IC50 was found to be 16 nM.

Regarding `Cc1c(Nc2c(C#N)cncc2-c2cccc3ccccc23)ccc2[nH]ccc12` [Compound 581, 4-[(4-methyl-1H-indol-5-yl)amino]-5-(1-naphthyl)nicotinonitrile], the half-inhibitory concentration (IC50) is 23 nM.

In the case of `Cc1c(Nc2c(C#N)cncc2-c2ccc3ccccc3c2)ccc2[nH]ccc12` [Compound 582, 4-[(4-methyl-1H-indol-5-yl)amino]-5-(2-naphthyl)nicotinonitrile], the IC50 stood at 92 nM.

For the molecule `Cc1c(Nc2c(C#N)cncc2-c2ccnn2C)ccc2[nH]ccc12` [Compound 583, 4-[(4-methyl-1H-indol-5-yl)amino]-5-(1-methyl-1H-pyrazol-5-yl)nicotinonitrile], the IC50 came out at 61 nM.

Consider `Cc1c(Nc2c(C#N)cncc2-c2cn[nH]c2)ccc2[nH]ccc12` [Compound 584, 4-[(4-methyl-1H-indol-5-yl)amino]-5-(1H-pyrazol-4-yl)nicotinonitrile], for which the IC50 amounted to 43 nM.

Values taken from patent US7781591B2, “Substituted 3-cyanopyridines as protein kinase inhibitors” (Wyeth LLC, priority 2006, dated 2010).
